This passage reports melting point results from a melting point compilation (Tetko et al.; mined from patent text by program, amines drawn as free bases though some values may be those of a salt).

`CCCOc1ccccc1-c1nc2cc3ncn(Cc4ccccc4)c3cc2c(=O)[nH]1` gave a melting point of 218 to 219 °C.

Turning to `CC(C)Cn1nc(-c2ccc(F)c(F)c2)cc(COS(C)(=O)=O)c1=O`, the melting point worked out at 113 °C.

`CC(C)(C)OC(=O)Nc1cc(OCc2ccccc2)cc(OCc2ccccc2)c1` had a melting point of 96 to 98 °C.

`CNC(=O)Nc1snc(S(C)(=O)=O)c1C#N` returned a melting point of 275 °C.

In the case of `CS(=O)(=O)NCCn1c2ccccc2c(=O)c2ccccc21`, the melting point is 226 to 227 °C.

`N#Cc1ccc(CN2CC=C(c3nc4ccccc4s3)CC2)cc1` yielded a melting point of 165 to 166 °C.

Compound `NC1=NCC(COc2ccccc2[N+](=O)[O-])O1` (stereo unspecified) registered a melting point of 166 °C.

In turn, `CCOC(=O)C1=Cc2cc(OC(F)(F)F)ccc2NC1C(F)(F)F` (stereo unspecified) had a melting point of 123 to 125 °C.

Regarding `Cc1c(C)c2c(c(C)c1OCc1ccccc1)CC(C)(CN1CCN(c3ccccc3)CC1)O2` (stereo unspecified), the melting point is 120 to 121 °C.

Compound `CCn1c2ccccc2n2c(=O)c(C(=O)N3CCOCC3)cnc12` came in with a melting point of 200 to 202 °C.

For the compound `N#Cc1cccc2c1CN(C1CCC(=O)NC1=O)C2=O` (stereo unspecified), the melting point was 312 to 314 °C.

As for `Cc1ccc(CSc2nc3cscc3n2C(=O)OCc2ccccc2)nc1`, the melting point lay within 103 to 104 °C.

The compound `CN(C)c1ncnc2c(O)cccc12` yielded a melting point of 104 to 105 °C.

Take `Fc1cccc2c1CNC2`: the melting point was 46.5 to 48.5 °C.

Compound `COc1ccc(CSc2nnc(-c3ccc4c(c3)CCO4)o2)cc1` displayed a melting point of 121 to 124 °C.

`CC/C(=C\C=C\C(=O)O)c1ccc(OC)cc1` yielded a melting point of 136 to 137 °C.

`Cc1nn(CCCl)c(-c2ccc(F)cc2)c1-c1ccc2c(c1)NC(=O)CO2` displayed a melting point of 216 °C.

As to `Cc1ccc(C)n1CCC1SCCC(=O)NC1C(N)=O` (stereo unspecified), the melting point fell in the range of 181 to 183 °C.

Turning to `COC(=O)N1CC[C@@H]2[C@H]1CCC[C@@]2(O)C#Cc1cccc(C)c1`, the melting point is 110 to 112 °C.

`CCOC(=O)CCc1cc(CCC(N)=O)cc(Cc2ccc(F)cc2)c1` showed a melting point of 69 to 70 °C.

Regarding `CC(C)N1C(=O)NCc2c(-c3ccccc3)cccc21`, the melting point lay in the range of 182 to 183 °C.

`C=CCC(O)c1ccc2ccccc2c1` (stereo unspecified) returned a melting point of 35 to 39 °C.

As for `CCOCc1nc2c(N)nc3cccnc3c2n1CC(C)(C)OCCS(C)(=O)=O`, the melting point was in the range of 189 to 191 °C.

The compound `CCOC(=O)CNc1c(C)cccc1[N+](=O)[O-]` showed a melting point of 49 to 52 °C.

Compound `CC(=O)Nc1ccccc1NS(=O)(=O)c1cc(C(=O)O)cc([N+](=O)[O-])c1Cl` yielded a melting point of 225 to 227 °C.

The compound `O=C(Nc1cccnn1)N1CCN(c2nccc(-c3cccc(F)c3F)n2)CC1` displayed a melting point of 248 to 249 °C.

`COc1c(Br)cc(Br)cc1C1(C#N)CCCCC1` returned a melting point of 100 to 102 °C.

`CCC/C(=C\C#N)c1ccc2c(c1)C(CC)(CC)OC(=O)N2`: the melting point was 121 to 124 °C.

`CC(=O)Nc1ccc(N2CCC(N(C)Cc3ccccc3)CC2)cc1` displayed a melting point of 147 °C.

On to `CCOC(=O)C(Cl)=Cc1cc(NC(N)=O)ccc1Cl`, for which the melting point fell in the range of 209 to 210 °C.

Take `Cc1nc(C)n(-c2cc(C)c3[nH]c(=O)ccc3c2)c1Br`: the melting point was 273 °C.

In turn, `FC(F)(F)c1ccc2c(C3CCN(CCCOc4cccc5[nH]ccc45)CC3)c[nH]c2c1` came in with a melting point of 92 to 97 °C.

As to `COCC(=O)Nc1ccc2c(c1)CCC2`, the melting point was 104 to 105 °C.

The compound `Cc1ccccc1Nc1nc(NCCc2ccccc2)nc2ccccc12` gave a melting point of 95 to 96 °C.

For `Nc1ccc(OCc2ccc(F)cc2)cc1F`, the melting point lay in the range of 42 to 43 °C.

Compound `O=C(CN1CCCC1)Nc1ccc(Br)cc1` gave a melting point of 60 to 63 °C.

Compound `Cc1nc(-n2cnn(CCOc3ccc(F)cc3)c2=O)sc1C(=O)NCc1cccnc1` registered a melting point of 154 to 155 °C.

`Cc1ccc(F)cc1C(=O)Nc1ccc(C(=O)N2Cc3cccn3Cc3ccccc32)c(Cl)c1`: the melting point was 191 to 195 °C.

As to `COc1cc(N)c2nccc(C)c2c1OC`, the melting point was in the range of 108 to 110 °C.

`Cc1cc(N)nc(-c2ccncc2)n1` showed a melting point of 192 to 194 °C.

Turning to `CCOc1ccc(S(=O)(=O)N2CCNCC2)cc1-c1nc2c(OC)cccc2c(=O)[nH]1`, the melting point fell in the range of 163 to 165 °C.

`CC(CCCl)=C1SC(=S)N(CC(=O)O)C1=O` had a melting point of 205 to 207 °C.

Turning to `CCCCC(CC)COc1ccc(N2C(C)=CC(=C=C3C(C#N)C(=C(C#N)C#N)OC3(C)C)C=C2C)cc1` (stereo unspecified), the melting point was 237 °C.

As to `CCCc1nc2c(N)nc3cc(Oc4ccccc4C#N)ccc3c2n1CC(C)C`, the melting point lay within 230 to 232 °C.

On to `NCC1Cc2cc(F)cc(-c3cccnc3)c2O1` (stereo unspecified), for which the melting point lay in the range of 88 to 90 °C.

As to `C#CCn1c(-c2c(Cl)cccc2Cl)nc(-c2ccncc2)c1-c1ccc(Cl)cc1`, the melting point was in the range of 169 to 172 °C.

The compound `CC(C)(C)c1ccc2oc(C(O)COc3ccc(C(=O)O)cc3)cc2c1` (stereo unspecified) yielded a melting point of 175 to 177 °C.

The compound `Cc1cc2c(cc1Br)N(C1CC1)C=NS2(=O)=O` came in with a melting point of 219 to 220 °C.

For `O=C(CCC(=O)N1CCC(c2ccc(Cl)cc2)CC1)c1ccc2c(c1)CCN(CC(=O)c1ccccc1)CC2`, the melting point lay in the range of 108 to 109 °C.

As to `Cn1ncc(NCCN2CCC(c3noc4cc(F)ccc34)CC2)cc1=O`, the melting point is 200 to 202 °C.

The compound `CCC1(C)OC(c2ccc(S(N)(=O)=O)cc2)=C(c2ccccc2)C1=O` (stereo unspecified) yielded a melting point of 153 to 154 °C.

For `N#Cc1ccc(Cn2cncc2CCCO)cc1`, the melting point fell in the range of 121 to 123 °C.

Turning to `OCC1OC(n2cnc3c(Nn4cccc4)ncnc32)C(O)C1O` (stereo unspecified), the melting point lay in the range of 193 to 195 °C.

`COc1cc(OC)nc(NC(=O)NS(=O)(=O)c2ncccc2C(CCl)OC(C)=O)n1` (stereo unspecified): the melting point fell in the range of 159 to 161 °C.

Take `NC(=O)c1cc(F)cc(-c2ccc(F)c3cc(Cc4cccc(C(F)(F)F)c4)sc23)c1`: the melting point lay in the range of 161 to 162 °C.

`COc1cccc(COc2cc3c(cc2OC)C(=O)N(Cc2cccc(OC)c2)CC3)c1` returned a melting point of 85 to 86 °C.

As to `CC(=O)NC[C@H]1CN(c2ccc(N3CCC(c4nnn[nH]4)CC3)c(F)c2)C(=O)O1`, the melting point fell in the range of 148 to 150 °C.

`O=C1NC(=O)C(=Cc2ccc(SCCc3ccccc3)cc2)S1`: the melting point lay within 182 to 183 °C.

In turn, `O=S1(=O)N=C2CCCN2c2ccc(O)cc21` showed a melting point of more than 300 °C.

In turn, `CC(=O)OC1CCCc2cnc3ccc(OCc4ccccc4[N+](=O)[O-])cc3c21` (stereo unspecified) came in with a melting point of 125 to 127 °C.

`CCCOc1ccccc1-c1nc2nc(NCCCS(C)(=O)=O)ncc2c(=O)[nH]1` displayed a melting point of 222 to 223 °C.

In turn, `S=C(NCCC1=CCCCC1)Nc1nccs1` displayed a melting point of 147 to 148 °C.

In turn, `COC(=O)c1ccc(-c2nnc(-c3ccc(C(F)(F)F)cc3)s2)cc1` returned a melting point of 218 to 219 °C.

On to `COC(=O)Cc1cccc2c(=O)cc(C3=CCCCC3)oc12`, for which the melting point lay within 137 to 138 °C.

The compound `CCCc1c(OCCCOc2ccc(Br)cc2)ccc2c1OC(CCC(=O)O)(CCC(=O)O)CC2=O` showed a melting point of 136 °C.

`COC(=O)Cc1cc(N=O)c2[nH]ccc2c1` returned a melting point of 110 to 111 °C.

With `c1ccc(-c2cc3cccc(CSCCN4CCCCC4)c3o2)cc1`, the melting point was 64.5 to 65.5 °C.

As for `COc1ccccc1C=C1CCc2c1oc1ccc(C(=O)O)cc1c2=O`, the melting point was in the range of 273 to 275 °C.

With `O=C(Nc1cccc(C(F)(F)F)c1)c1coc2cc(Oc3cc(CO)ncn3)ccc12`, the melting point was in the range of 181 to 182 °C.

The compound `CCOC(=O)CCCC(=O)c1ccc(Oc2ccccc2)cc1` returned a melting point of 61 to 62 °C.

In turn, `O=C(O)C(=O)Nc1ccc2[nH]c(=O)oc2c1` registered a melting point of 254 °C.

As for `CN1CCC=C(c2nsnc2SCCCC(=O)O)C1`, the melting point lay in the range of 99 to 101 °C.

With `Cc1cc(C)c2c(c1)OCC2=O`, the melting point was in the range of 55 to 60 °C.

`CCn1nc(-c2ccc(F)cc2)c(-c2ccncc2)c1C(=O)N(C)Cc1ccccc1` yielded a melting point of 148 to 149 °C.

`Cn1ccc2c(c(=NO)c1=O)C=CCC2` yielded a melting point of 225 to 226 °C.

For `CCCCn1c(=O)c(C(=O)O)c(-c2ccc(Br)cc2)c2cccnc21`, the melting point lay in the range of 158 to 160 °C.

`CNc1nc(-c2cccc(OCc3ccccc3)c2)c2cc(OC)c(OC)cc2n1` showed a melting point of 116 to 118 °C.

As for `COc1ccc(NS(=O)(=O)c2cc(C)c3cc(C(C)C)ccc(C)c2-3)c(OC)c1`, the melting point is 114 to 116 °C.

Consider `Cc1nc[nH]c1CSCCC1=NCCS(=O)(=O)N1`, for which the melting point fell in the range of 146 to 147 °C.

`Cc1oc(-c2ccccc2)nc1COc1ccc(Cn2cc(/C=C/C(=O)O)cn2)cc1`: the melting point was in the range of 186 to 187 °C.

In turn, `COc1ccc(C(=O)Nc2ccc(C(=O)O)c3ccccc23)cc1OC` came in with a melting point of 256 to 259 °C.

In turn, `CN(C)C(=S)SC(C[N+](=O)[O-])c1ccc2c(c1)OCO2` (stereo unspecified) yielded a melting point of 122 to 124 °C.

`CON=C(C1=NCCO1)c1ccccc1OCc1ccc(Cl)cc1` showed a melting point of 97 to 100 °C.

With `NS(=O)(=O)CCCSc1ccc2ncc(Cl)n2n1`, the melting point is 136 to 137 °C.

Take `Cc1nc2sc(C)c(C)n2c(=O)c1CCN1CCC(C(=O)c2ccc(F)cc2)CC1`: the melting point was determined as 159 °C.

The compound `CCS(=O)(=O)c1ccc(Oc2ccc(Cl)c(Cl)c2)nc1C#N` returned a melting point of 150 to 151 °C.

`COC(=O)c1ccc2c(ccn2Cc2cccc([N+](=O)[O-])c2)c1` displayed a melting point of 129 to 130 °C.

`COC(=O)C1=C(C)NC(C)=C(C(=O)OCCN2CCN(C(c3ccccc3)c3ccccc3)CC2)C1c1ccco1` (stereo unspecified) showed a melting point of 71 to 77 °C.

The compound `CN(C(CCn1c(=O)cc(Cl)n(C)c1=O)C(=O)O)S(=O)(=O)c1ccc(Oc2ccccc2)cc1` (stereo unspecified) yielded a melting point of 115 to 117 °C.

The compound `CCCCOc1cc2ncnc(N3CCc4ccc(Cl)cc43)c2cc1OC` gave a melting point of 126 to 132 °C.

As to `CSc1ccc(C)cc1C(N)=S`, the melting point was found to be 160 °C.

Broadly, the melting point is the temperature, or range, at which the solid turns liquid.
